# Laboratory results from patent US6780871B2, “Methods and compositions for treating addiction disorders” (Albany Medical College, priority 2001, dated 2004).
# Legend:
# [1] = tested on: methamphetamine self-administration; assay: intravenous methamphetamine self-administration; format: in vivo, rat
# NR1/2A receptors = target: T1, NR1/2A receptors (Rattus norvegicus, UniProt P35439+Q00959); assay: whole-cell patch-clamp of transfected HEK293 cells, NR1/2A, 100 μM glutamate plus 10 μM glycine; format: cell-based
# T1 construct: expressed in transfected cells; host or cells: HEK293 (ATCC CRL1573), transient transfection
# Experimental: (§1) Human embryonic kidney 293 (HEK293) fibroblasts (ATCC CRL1573) were cultured in minimal essential medium supplemented with 10% fetal bovine serum and 2 mM glutamine (Life Technologies, Rockville, Md.). Cells were plated on poly-D-lysine-coated 35 mm nunc dishes, transfected by the LipofectaminePLUS method (Life Technologies), and examined functionally between 18-48 h post transfection. The following receptor subunit cDNAs were used: nAChR-α3 (nicotinic acetylcholine receptor-α3; accession no. L31621), nAChR-α4 (accession no. L31620), nAChR-β2 (accession no. L31622), nAChR-β4 (accession no. U42976), 5-HT3R-A (5-HT3A receptor; accession no. M74425), NR1 (N-methyl-D-aspartate receptor 1; accession no. X63255), NR2A (accession no. X91561), and NR2B (accession no. M91562). The nAchR and NR clones were rat; the 5-HT3R-A clone was mouse. Co-transfection of enhanced green fluorescent protein (“EGFP”) (10% of total cDNA) provided a marker to identify transfected cells. Transfected cells were selected for EGFP expression and examined by voltage-clamp recording in the whole-cell configuration using an Axopatch 200B patch-clamp amplifier (Axon Instruments, Foster City, Calif.). Thin-walled borosilicate glass microelectrodes (TW150F, World Precision Instruments, Sarasota, Fla.) had resistances of 3-5 MΩ when filled with an internal solution containing (in mM): 135 CsCl, 10 CsF, 10 HEPES (N-[2-hydroxyethyl]piperazine-N′-[2-ethanesulfonic acid]), 5 EGTA (ethylene glycol-bis[β-aminoethyl ether]-N,N,N′,N′-tetraacetic acid), 1 MgCl2, 0.5 CaCl2, pH 7.2. Whole-cell capacitance and series resistance were recorded and adequately compensated using the available circuitry of the amplifier. Current responses were filtered at 1 kHz with an 8-pole Bessel filter (Cygnus Technologies, Delaware Water Gap, Pa.), digitized at 3 kHz, and stored on a Macintosh PowerPC-G3 computer using an ITC-16 interface (Instrutech, Great Neck, N.Y.) under control of the data acquisition and analysis program Synapse (Synergy Research, Gaithersburg, Md.). Cells were continuously superfused with extracellular solution containing (in mM): 150 NaCl, 3 KCl, 5 HEPES, 1 MgCl2, 1.8 CaCl2, 10 glucose, and 0.1 mg/ml phenol red, pH 7.3 (MgCl2 was omitted from all solutions used for the study of NMDA receptors). […] Control, agonist, and drug solutions were applied to individual cells by rapid perfusion. Solutions were driven by a syringe pump through a flowpipe having 4 inputs that converge at a single common output of approximately 100 μm diameter. Rapid switching between inputs was achieved using a set of upstream solenoid valves (Lee Co., Westbrook, Conn.) under computer control; the solution exchange rate was ˜5 ms as measured from liquid junction currents.
# (§2) To study these, transfected HEK293 cells expressing NR1/2A or NR1/2B receptors were voltage-clamped to −70 mV and stimulated with 100 μM glutamate plus 10 μM glycine at 30 s intervals. […] In FIGS. 3A and 3B, open bars depict the timing of agonist application, filled bars depict the timing of co-application of 20 μM IBO or 20 μM 18MC, and inhibition was measured relative to control at the end of the drug application (indicated by arrows).
# NR1/2B receptors = target: T2, NR1/2B receptors (Rattus norvegicus, UniProt P35439+Q00960); assay: whole-cell patch-clamp of transfected HEK293 cells, NR1/2B, 100 μM glutamate plus 10 μM glycine; format: cell-based
# T2 construct: expressed in transfected cells; host or cells: HEK293 (ATCC CRL1573), transient transfection
# Experimental: as §1, §2
# [2] = tested on: nicotine self-administration; assay: nicotine self-administration; format: in vivo, rat; details: Example 7, FIGS. 11-12: mecamylamine 0.1 mg/kg i.p., 18-methoxycoronaridine 0.5 mg/kg i.p., dextromethorphan 0.5 mg/kg s.c., bupropion 5 mg/kg i.p.; 5-8 rats
# T2 sequence (Q00960 27-1482, other chains not shown): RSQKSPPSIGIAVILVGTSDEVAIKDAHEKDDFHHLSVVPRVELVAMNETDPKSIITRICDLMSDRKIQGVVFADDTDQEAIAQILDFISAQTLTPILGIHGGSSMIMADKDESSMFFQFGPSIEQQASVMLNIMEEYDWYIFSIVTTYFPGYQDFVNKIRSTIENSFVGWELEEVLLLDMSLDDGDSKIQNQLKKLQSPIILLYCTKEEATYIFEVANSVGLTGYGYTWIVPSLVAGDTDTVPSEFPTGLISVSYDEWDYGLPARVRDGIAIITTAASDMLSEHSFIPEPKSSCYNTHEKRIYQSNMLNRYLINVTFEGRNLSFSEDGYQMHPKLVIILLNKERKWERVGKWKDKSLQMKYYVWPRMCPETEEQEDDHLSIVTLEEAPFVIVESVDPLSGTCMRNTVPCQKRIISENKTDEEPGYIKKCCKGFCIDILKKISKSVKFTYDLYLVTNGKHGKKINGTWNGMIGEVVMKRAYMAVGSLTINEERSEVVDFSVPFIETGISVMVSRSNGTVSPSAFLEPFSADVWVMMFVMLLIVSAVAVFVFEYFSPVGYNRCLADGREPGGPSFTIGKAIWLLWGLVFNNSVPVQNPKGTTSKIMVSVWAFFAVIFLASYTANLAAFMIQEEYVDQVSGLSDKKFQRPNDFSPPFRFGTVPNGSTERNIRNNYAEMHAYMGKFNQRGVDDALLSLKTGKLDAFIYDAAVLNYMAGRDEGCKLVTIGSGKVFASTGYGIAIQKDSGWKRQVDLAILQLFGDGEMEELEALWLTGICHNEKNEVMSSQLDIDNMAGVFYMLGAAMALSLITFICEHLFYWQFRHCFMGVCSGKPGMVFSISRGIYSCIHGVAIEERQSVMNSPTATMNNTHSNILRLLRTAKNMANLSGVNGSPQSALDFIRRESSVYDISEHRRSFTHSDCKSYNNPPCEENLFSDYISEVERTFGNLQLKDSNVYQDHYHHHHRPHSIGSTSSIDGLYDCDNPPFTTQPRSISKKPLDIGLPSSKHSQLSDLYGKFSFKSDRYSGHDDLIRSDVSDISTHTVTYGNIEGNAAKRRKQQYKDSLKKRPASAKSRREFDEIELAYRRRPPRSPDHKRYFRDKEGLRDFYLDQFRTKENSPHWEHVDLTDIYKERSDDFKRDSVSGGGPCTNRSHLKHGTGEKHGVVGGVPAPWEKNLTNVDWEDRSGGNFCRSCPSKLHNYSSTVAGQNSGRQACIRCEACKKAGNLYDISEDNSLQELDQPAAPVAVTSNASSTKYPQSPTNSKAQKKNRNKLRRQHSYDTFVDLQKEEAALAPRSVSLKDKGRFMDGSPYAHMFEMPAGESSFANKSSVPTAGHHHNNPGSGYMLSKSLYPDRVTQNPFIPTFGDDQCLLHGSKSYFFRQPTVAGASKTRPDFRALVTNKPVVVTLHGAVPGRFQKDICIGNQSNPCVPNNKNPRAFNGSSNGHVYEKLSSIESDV
# T1 sequence (Q00959 20-1464 limits assumed, other chains not shown): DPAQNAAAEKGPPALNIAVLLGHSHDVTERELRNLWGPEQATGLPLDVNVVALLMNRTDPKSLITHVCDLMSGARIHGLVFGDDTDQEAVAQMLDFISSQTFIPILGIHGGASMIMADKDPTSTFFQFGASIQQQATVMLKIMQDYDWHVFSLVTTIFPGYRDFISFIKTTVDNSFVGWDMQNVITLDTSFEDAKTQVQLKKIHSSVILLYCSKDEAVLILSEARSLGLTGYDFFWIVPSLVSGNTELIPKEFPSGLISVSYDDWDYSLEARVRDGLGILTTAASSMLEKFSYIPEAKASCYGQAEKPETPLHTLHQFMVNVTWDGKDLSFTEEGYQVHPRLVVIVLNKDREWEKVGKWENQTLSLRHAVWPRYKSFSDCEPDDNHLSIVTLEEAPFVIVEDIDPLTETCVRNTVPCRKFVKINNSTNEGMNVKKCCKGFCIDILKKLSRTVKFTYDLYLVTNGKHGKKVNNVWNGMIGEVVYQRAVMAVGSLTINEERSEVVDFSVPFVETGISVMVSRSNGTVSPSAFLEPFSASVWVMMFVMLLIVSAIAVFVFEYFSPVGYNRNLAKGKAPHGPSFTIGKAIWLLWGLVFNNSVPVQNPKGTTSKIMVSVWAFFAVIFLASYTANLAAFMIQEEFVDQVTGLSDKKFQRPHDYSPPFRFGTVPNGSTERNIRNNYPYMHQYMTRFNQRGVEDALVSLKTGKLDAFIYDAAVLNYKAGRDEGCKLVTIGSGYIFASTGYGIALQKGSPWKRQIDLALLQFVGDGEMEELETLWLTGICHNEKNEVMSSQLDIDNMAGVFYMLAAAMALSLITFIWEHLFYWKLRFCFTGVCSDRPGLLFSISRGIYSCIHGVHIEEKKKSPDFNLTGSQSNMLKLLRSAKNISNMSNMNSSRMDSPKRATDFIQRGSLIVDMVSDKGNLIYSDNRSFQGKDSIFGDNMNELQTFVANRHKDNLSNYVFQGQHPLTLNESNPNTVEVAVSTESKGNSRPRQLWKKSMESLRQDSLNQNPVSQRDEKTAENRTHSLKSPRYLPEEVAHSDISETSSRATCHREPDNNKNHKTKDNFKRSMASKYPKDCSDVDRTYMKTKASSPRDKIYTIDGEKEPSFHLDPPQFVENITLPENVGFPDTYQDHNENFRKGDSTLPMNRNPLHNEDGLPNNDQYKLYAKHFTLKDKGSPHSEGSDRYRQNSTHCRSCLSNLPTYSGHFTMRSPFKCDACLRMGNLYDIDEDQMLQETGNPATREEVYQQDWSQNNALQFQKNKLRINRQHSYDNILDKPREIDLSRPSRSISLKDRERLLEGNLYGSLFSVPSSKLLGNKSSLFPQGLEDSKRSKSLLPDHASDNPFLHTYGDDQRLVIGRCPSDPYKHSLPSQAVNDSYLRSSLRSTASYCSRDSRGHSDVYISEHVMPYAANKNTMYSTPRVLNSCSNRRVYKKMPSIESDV
smiles,measurement,setting,value
COCC[C@H]1CC2CN3CCc4c([nH]c5ccccc45)[C@](C(=O)OC)(C2)[C@H]13 [18-methoxycoronaridine],effect on methamphetamine self-administration (percent of baseline),"[1]; Example 5, FIG. 6: mecamylamine 1 mg/kg i.p., 18-methoxycoronaridine 2 mg/kg i.p., dextromethorphan 5 mg/kg s.c., 6-7 rats","none of the drugs administered alone, significantly decreased"
same,effect on methamphetamine self-administration (percent of baseline),"[1]; Example 6, FIG. 9: mecamylamine 1 mg/kg i.p., 18-methoxycoronaridine 5 mg/kg i.p., dextromethorphan 10 mg/kg s.c., bupropion 10 mg/kg i.p., 5-9 rats","none of the drugs administered alone, significantly decreased"
same,response to drug applied alone (agonist activity),NR1/2A receptors; 20 μM drug alone,did not produce any response
same,inhibition of agonist-evoked response,"NR1/2A receptors; concentrations up to 20 μM, N=3, FIG. 3A",failed to inhibit
same,response to drug applied alone (agonist activity),NR1/2B receptors; 20 μM drug alone,did not produce any response
same,inhibition of agonist-evoked response,"NR1/2B receptors; concentrations up to 20 μM, N=5, FIG. 3B",failed to inhibit
same,effect on nicotine self-administration (percent of baseline),[2],"none of the drugs administered alone, significantly decreased"
